Experimental data from the supplement of paper PMC11061612.

Assays:
Assay in all cases: Bliss excess, mean over the matrix (fraction); higher = more synergy
[1] = test system: TE-1 (Esophageal Squamous Cell Carcinoma)
How it was run: (§1)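 Bliss excess equals the observed combination effect minus the expected value EA + EB − EA·EB, where EA and EB are the effects of each agent alone. Combination Emax is the second-highest inhibition within the matrix. Inhibition was scaled from CellTiter-Glo 2.0 luminescence, with 0 set by vehicle wells and 1 by blank wells, after 72 hours of two-drug dosing of cells plated in 1536-well plates.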

[2] = test system: SCC-15 (Oral Cavity Carcinoma)
How it was run: as §1

[3] = test system: Caov-4 (Ovarian Carcinoma)
How it was run: as §1

[4] = test system: TK10 (Kidney Carcinoma)
How it was run: as §1

[5] = test system: MIA-PaCa-2 (Pancreatic Carcinoma)
How it was run: as §1

[6] = test system: AMO-1 (Plasma Cell Myeloma)
How it was run: as §1

[7] = test system: EFM-19 (Breast Carcinoma)
How it was run: as §1

[8] = test system: MLMA (Other Blood Carcinomas)
How it was run: as §1

[9] = test system: UACC-62 (Melanoma)
How it was run: as §1

[10] = test system: HOP-62 (Lung Adenocarcinoma)
How it was run: as §1

[11] = test system: KARPAS-299 (T-Cell Non-Hodgkin's Lymphoma)
How it was run: as §1

[12] = test system: NCI-H727 (Other Solid Carcinomas)
How it was run: as §1

[13] = test system: PANC-04-03 (Pancreatic Carcinoma)
How it was run: as §1

[14] = test system: BT-549 (Breast Carcinoma)
How it was run: as §1

[15] = test system: SW13 (Other Solid Carcinomas)
How it was run: as §1

[16] = test system: RF-48 (B-Cell Non-Hodgkin's Lymphoma)
How it was run: as §1

[17] = test system: NB69 (Neuroblastoma)
How it was run: as §1

[18] = test system: D-263MG (Glioblastoma)
How it was run: as §1

[19] = test system: NCI-H1915 (Non-Small Cell Lung Carcinoma)
How it was run: as §1

[20] = test system: EoL-1-cell (Acute Myeloid Leukemia)
How it was run: as §1

SMILES | Bliss excess [1] | Bliss excess [2] | Bliss excess [3] | Bliss excess [4] | Bliss excess [5] | Bliss excess [6] | Bliss excess [7] | Bliss excess [8] | Bliss excess [9] | Bliss excess [10] | Bliss excess [11] | Bliss excess [12] | Bliss excess [13] | Bliss excess [14] | Bliss excess [15] | Bliss excess [16] | Bliss excess [17] | Bliss excess [18] | Bliss excess [19] | Bliss excess [20]
Cc1c2c(nn1C)CSCc1cc(n(C)n1)CSc1cc(c3ccccc3c1)OCCCc1c(C(=O)O)n(C)c3c-2c(Cl)ccc13 [AZD5991] + C1CN(CCC1(C(=O)N[C@@H](CCO)C2=CC=C(C=C2)Cl)N)C3=NC=NC4=C3C=CN4 [Capivasertib] (first compound max 1 µM, 7x7, partner max 3 µM) | -0.0107 | 0.0106 | 0.0354 | -0.031 | 0.0125 | 0.0178 | 0.0003 | 0.0394 | 0.0121 | -0.0422 | 0.0078 | 0.0322 | -0.0094 | 0.0274 | 0.0419 | 0.0285 | -0.0071 | 0.083 | 0.0103 | 0.0528
Cc1c2c(nn1C)CSCc1cc(n(C)n1)CSc1cc(c3ccccc3c1)OCCCc1c(C(=O)O)n(C)c3c-2c(Cl)ccc13 [AZD5991] + C[C@@H]1COCCN1C2=NC(=NC(=C2)C3(CC3)[S@](=N)(=O)C)C4=C5C=CNC5=NC=C4 [AZD6738] (first compound max 1 µM, 7x7, partner max 10 µM) | 0.0125 | 0.0506 | -0.0205 | -0.0599 | 0.0652 | 0.0055 | 0.0543 | -0.0392 | 0.0478 | 0.0213 | 0.0002 | 0.025 | 0.0027 | 0.0869 | 0.0363 | -0.0062 | 0.0301 | -0.0023 | 0.0212 | 0.0036
Cc1c2c(nn1C)CSCc1cc(n(C)n1)CSc1cc(c3ccccc3c1)OCCCc1c(C(=O)O)n(C)c3c-2c(Cl)ccc13 [AZD5991] + C[C@@H](Nc1cc(F)cc(F)c1)c1cc(C(=O)N(C)C)cc2c(=O)cc(N3CCOCC3)oc12 [AZD8186] (first compound max 1 µM, 7x7, partner max 3 µM) | -0.0186 | 0.0139 | -0.0121 | -0.0736 | -0.0095 | 0.0522 | -0.0123 | 0.0282 | 0.036 | -0.0421 | 0.0185 | 0.0239 | -0.0045 | 0.0621 | 0.0293 | -0.0401 | -0.0207 | 0.0849 | -0.0265 | 0.0072
Cc1c2c(nn1C)CSCc1cc(n(C)n1)CSc1cc(c3ccccc3c1)OCCCc1c(C(=O)O)n(C)c3c-2c(Cl)ccc13 [AZD5991] + Cc1cc2ncnn2cc1Nc1ncc2c(n1)n(C1CCOCC1)c(=O)n2C [AZD7648] (first compound max 1 µM, 7x7, partner max 10 µM) | -0.0494 | -0.042 | 0.0024 | -0.0327 | -0.0385 | -0.0215 | -0.0215 | -0.0001 | -0.0534 | -0.0758 | -0.0066 | -0.0833 | -0.0242 | -0.0523 | 0.0165 | -0.0115 | -0.0009 | 0.0046 | -0.0226 | -0.0018
C[C@@H]1COCCN1c1cc(C2([S@](C)(=N)=O)CC2)nc(-c2ccnc3[nH]ccc23)n1 [AZD6738] + O=C(c1cc(Cc2n[nH]c(=O)c3ccccc23)ccc1F)N1CCN(C(=O)C2CC2)CC1 [Olaparib] (first compound max 10 µM, 7x7, partner max 10 µM) | -0.0461 | 0.0011 | -0.125 | -0.0735 | -0.016 | -0.0316 | 0.0141 | -0.15 | 0.0235 | 0.0092 | -0.0073 | -0.0317 | 0.0066 | 0.0032 | 0.0093 | -0.0422 | 0.045 | 0.0604 | -0.0182 | 0.0073
NC1(C(=O)N[C@@H](CCO)c2ccc(Cl)cc2)CCN(c2ncnc3[nH]ccc23)CC1 [Capivasertib] + CC(=O)c1c(C)c2cnc(Nc3ccc(N4CCNCC4)cn3)nc2n(C2CCCC2)c1=O [Palbociclib] (first compound max 10 µM, 7x7, partner max 10 µM) | -0.0276 | -0.0456 | 0.0152 | -0.0106 | 0.0767 | 0.0364 | -0.0107 | -0.0769 | -0.057 | -0.04 | 0.0205 | -0.0139 | -0.0351 | -0.0064 | -0.0236 | -0.0186 | -0.009 | 0.0117 | -0.0247 | -0.0039
NC1(C(=O)N[C@@H](CCO)c2ccc(Cl)cc2)CCN(c2ncnc3[nH]ccc23)CC1 [Capivasertib] + CC(C)n1c(=O)n(C)c2cnc3cc(F)c(-c4ccc(OCCCN5CCCCC5)nc4)cc3c21 [AZD1390] (first compound max 10 µM, 7x7, partner max 0.3 µM) | -0.0818 | -0.0796 | -0.0095 | -0.0798 | -0.048 | 0.0042 | -0.0614 | -0.0216 | -0.0888 | -0.0893 | 0.015 | -0.0922 | -0.0997 | -0.071 | 0.0127 | -0.0052 | -0.0787 | -0.0713 | -0.0621 | -0.0173
